Like-named read-outs stand apart in the source and are kept apart here.

Data set [1] concerns Proteus mirabilis OM-1. Nature of the data set: Arrestment action to alkalization of the urine. Type of data set: cell-based. To be noted: normal human urine inoculated with Proteus mirabilis OM-1, 37° C. How it is done:
(§1) Solutions to be examined were prepared by collecting each 18 ml of fresh urine from a normal human, and adding the respective examination compounds to each of the urine to make their concentration of 10^-3 M in one group, and of 2×10^-4 in the other group. On the other hand, same solutions containing no examination compounds were prepared as blanks.
Proteus mirabilis OM-1, a urease-producing bacterium, was inoculated in said solutions, so that the number of the bacteria may amount to 10^6 cell/ml, and cultured at 37° C. […] The arrestment ratio of calculus formation was calculated from said values.

For data set [2], the target named is T1, Urease collected and purified from sword beans (Canavalia gladiata) (Canavalia gladiata, UniProt A0AAN9R4W0).
T1 construct: single-chain plant urease, homohexamer by analogy with jack bean urease
T1 sequence (A0AAN9R4W0 entry or part of it): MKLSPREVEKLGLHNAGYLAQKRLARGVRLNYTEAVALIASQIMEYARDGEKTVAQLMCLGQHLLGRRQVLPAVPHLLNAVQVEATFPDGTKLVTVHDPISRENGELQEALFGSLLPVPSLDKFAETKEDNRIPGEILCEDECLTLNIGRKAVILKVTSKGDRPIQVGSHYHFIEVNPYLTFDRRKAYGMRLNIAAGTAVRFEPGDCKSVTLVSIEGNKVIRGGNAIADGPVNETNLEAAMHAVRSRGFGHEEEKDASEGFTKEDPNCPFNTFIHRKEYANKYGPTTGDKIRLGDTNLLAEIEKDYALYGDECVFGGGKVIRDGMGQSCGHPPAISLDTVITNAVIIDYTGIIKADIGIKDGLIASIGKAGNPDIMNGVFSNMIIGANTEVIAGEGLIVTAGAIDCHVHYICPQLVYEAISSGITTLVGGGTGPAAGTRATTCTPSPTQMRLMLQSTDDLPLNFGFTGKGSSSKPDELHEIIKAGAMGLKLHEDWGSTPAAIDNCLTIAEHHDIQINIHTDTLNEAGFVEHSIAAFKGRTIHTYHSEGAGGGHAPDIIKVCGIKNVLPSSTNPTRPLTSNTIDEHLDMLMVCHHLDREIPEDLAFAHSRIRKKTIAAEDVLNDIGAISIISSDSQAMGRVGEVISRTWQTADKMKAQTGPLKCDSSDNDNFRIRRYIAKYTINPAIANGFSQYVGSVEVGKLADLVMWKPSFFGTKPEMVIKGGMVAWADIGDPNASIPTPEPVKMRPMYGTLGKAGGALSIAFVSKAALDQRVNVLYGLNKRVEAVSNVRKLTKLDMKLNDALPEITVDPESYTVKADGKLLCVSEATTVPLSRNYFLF
Briefly: Determination of the urease inhibitory action. It counts as biochemical. Particulars: read-out: 50% inhibitory concentration (M) of urease <I50>. How it is done: (i) Determination of the urease inhibitory action
Urease was collected and purified from sword beans (Canavalia gladiata) and mol concentrations of the examination compounds for inhibiting 50% of the activity of the urease were measured by the method of Kobashi et al [Refer to Biochim. Biophys. acta 227, 429-441 (1971)].

Data set [3] can be described thus: Acute toxicity: remarks on the dissection. To be noted: for Remarks on the dissection, death examples: macroscopic observation at the time of death; for Remarks on the dissection, survivor example: rat, in vivo. Type of data set: in vivo, rats of SD strain. As to the method: (§2) Eight week-old rats of SD strain (body weight: about 230 g for male and about 160 g for female) were used as the subject animals. The examination compounds were forcedly and orally administered in the following dosages, wherein 14 rats (7 male rats and 7 female rats, respectively) were used.
The dissection was performed, for the death examples, at the time of death and, for the survivor example, after killing by discharging the blood when the observation of the general conditions was finished. The organs in the thoracic cavity and the abdominal cavity were closely observed with a macroscopic manner.

Data set [4] can be described thus: Determination of the transfer rate into the urine and calculation of the index. Type of data set: in vivo, male rats of SD strain. Particulars: rat, male SD rats, 100 mg/Kg oral, measured as urease inhibitory action in excreted urine; for dose excreted at 6 h: 0-6 hours; for dose excreted at 24 h: 6-24 hours. How it is done: (ii) Determination of the transfer rate into the urine
Transfer rates into the urine of the examination compounds were determined according to the method of Kobashi et al [Refer to Biochemistry (Japan) vol. 44, No. 5, pp. 187-204 (1972) and Yakugaku Zasshi vol. 12, pp. 1564-1572 (1973)] by using the male rats of SD strain having the body weight of about 280 g, administering orally each 100 mg/Kg of the compounds, and measuring the urease inhibitory action in the excreted urine within a specified period of time.
(iii) Calculation of the index
The index was calculated from the resulting values of the above examinations (i) and (ii) according to the following equation: [formula] wherein n is chosen appropriately depending on the value of I50.
The value of the index is referred to as a standard of the urease inhibitory power of the administered examination compound in the urine.
It is seen that the larger the value of the index is, the more effectively the examination compounds transfer into the urine with a form having the urease inhibitory action. Results of the determination

Data set [5] has as its system Proteus mirabilis OM-1. Briefly: Arrestment action to the calculus formation in the urine. Type of data set: cell-based. To be noted: OM1, human urine with Proteus mirabilis OM-1, 8 hours, read-out: Arrest ratio to calculus formation (%), 8 hours; for inhibition at 200 µM: 2×10^-4 M; for inhibition at 1000 µM: 10^-3 M.
The test system of data set [6] is Proteus mirabilis OM-1. Described as above. It counts as cell-based. To be noted: OM1, human urine with Proteus mirabilis OM-1, 24 hours, read-out: Arrest ratio to calculus formation (%), 24 hours; for inhibition at 200 µM: 2×10^-4 M; for inhibition at 1000 µM: 10^-3 M. As to the method: as §1
Proteus mirabilis OM-1, a urease-producing bacterium, was inoculated in said solutions, so that the number of the bacteria may amount to 10^6 cell/ml, and cultured at 37° C. After […] and 24 hours of the culture time, pH values of the solutions and amounts by weight of the formed and deposited calculus were measured. The arrestment ratio of calculus formation was calculated from said values.

The nature of data set [7]: Examination of urine (Labstix test paper, amount, pH). Also on record: key to Protein in urine, hours 0-6 / Protein in urine, hours 6-24 / Glucose in urine, hours 0-6 / Glucose in urine, hours 6-24 / Ketone substances in urine, hours 0-6 / Ketone substances in urine, hours 6-24 / Occult blood in urine, hours 0-6 / Occult blood in urine, hours 6-24: (-); (±); (+); (++); (+++). Type of data set: in vivo, male SD strain rats. To be noted: 100 mg/Kg oral, male SD rats; for Ketone substances in urine, hours 0-6 / Occult blood in urine, hours 0-6 / Protein in urine, hours 0-6 / Glucose in urine, hours 6-24 / Ketone substances in urine, hours 6-24 / Occult blood in urine, hours 6-24 / Protein in urine, hours 6-24 / Glucose in urine, hours 0-6: Labstix; for Ketone substances in urine, hours 0-6 / Occult blood in urine, hours 0-6 / Protein in urine, hours 0-6: 0-6 hours; for Glucose in urine, hours 6-24 / Ketone substances in urine, hours 6-24 / Occult blood in urine, hours 6-24 / Protein in urine, hours 6-24: 6-24 hours; for Glucose in urine, hours 0-6: first collection period; for Amount and pH value of the urine: compared with the group given no examination compound. How it is done: To 5 male SD strain rats having the body weight of about 280 g in the respective groups, the examination compounds were forcedly and orally administered in a ratio of 100 mg/Kg in each time.
Natural urinations were respectively recovered 6 hours and 6-24 hours from the administration. As for control group wherein no examination compound is administered, natural urination was similarly recovered. Amount and pH value of the recovered urine were measured. Further, qualitative reaction concerning the respective items of protein, glucose, ketone substances, and occult blood in the urine was carried out by using Labstix text paper (manufactured and sold by Ames Company). Judgement was ranked as five levels, that is, (-), (±), (+), (++) and (+++).

The nature of data set [8]: Acute toxicity (LD50), oral. To be noted: rat, in vivo. From the text:
The examination was achieved by orally administering the examination compounds into male rats of SD strain weighing about 230 g, respectively.

Data set [9] is described as follows: Acute toxicity: observation of the general conditions. Type of data set: in vivo. To be noted: for Number of death examples, Female / Number of death examples, Male: rat, in vivo; for Symptom: 7 male and 7 female per dose.
Description: as §2

Where [10] appears, read: single forced oral dose, SD rats.
The mark [11] stands for this setting: single forced oral dose, SD rats, all administration groups.

A word on the LD50: it is the dose at which mortality reaches 50%. For `O=C(CNC(=O)c1ccc(Cl)cc1)NO` [Control compound I, 2-(para-chloro-benzamide)-acetohydroxamic acid, reference compound], in data set [1] (2×10^-4 M), the “pH value, time 0 hour” value came to 6.79±0.01; the “pH value, time 8 hours” value is listed as 7.30±0.00; the “pH value, time 24 hours” value amounted to 8.51±0.01. Further, in data set [1] (10^-3 M), the “pH value, time 0 hour” value is recorded as 6.75±0.003; the “pH value, time 8 hours” value is 6.64±0.02; the “pH value, time 24 hours” value is 7.03±0.01. The IC50 in [2] came out at 1e-06 M. Further, in data set [3], the “Remarks on the dissection, death examples” value is “Petechiae and ulcer”; the “Remarks on the dissection, survivor example” value was “Blacking change and hypertrophy of spleen”. In addition, in [4], the dose excreted at 6 h was 1% and the dose excreted at 24 h was 0.5%. Besides, in data set [5], the inhibition at 200 µM is 77.2 ± 9.1% and the inhibition at 1000 µM was 69.7 ± 9%. Further, in data set [6], the inhibition at 200 µM is 30.6 ± 13.9% and the inhibition at 1000 µM is 82.5 ± 8.5%. For the same compound, in [7], the “Ketone substances in urine, hours 0-6” value is “++”; the “Occult blood in urine, hours 0-6” value is “-”; the “Protein in urine, hours 0-6” value was “++”; the “Glucose in urine, hours 6-24” value is “+++”. Further, in [7], the “Ketone substances in urine, hours 6-24” value is on record as “+++”; the “Occult blood in urine, hours 6-24” value is listed as “-”; the “Protein in urine, hours 6-24” value is recorded as “+++”; the “Glucose in urine, hours 0-6” value is recorded as “+++”. Moreover, the “Amount and pH value of the urine” value in [7] is “there was not found the difference”. In data set [8] (po), the 50% lethal dose (LD50) was above 5000 mg/kg. In addition, in data set [9], the “Number of death examples, Female” value is 0/7 and the “Number of death examples, Male” value is 3/7. Moreover, the Symptom result in data set [9] (setting [10]) is given as “arantic change”. In [9] (setting [11]), the Baited amount entry is “Decrease” and the “Body Weight decrease on average” value worked out at 10%.

Consider `CC(=O)Nc1cccc(C(=O)NCC(=O)NO)c1` [Compound M, 2-(meta-acetylaminobenzamide)-acetohydroxamic acid], for which, in [1] (2×10^-4 M), the “pH value, time 8 hours” value is on record as 7.96±0.02 and the “pH value, time 24 hours” value worked out at 8.70±0.00. Besides, in data set [1] (10^-3 M), the “pH value, time 0 hour” value came out at 6.78±0.02; the “pH value, time 8 hours” value is 6.79±0.01; the “pH value, time 24 hours” value is reported as 7.08±0.03. In data set [2], the IC50 worked out at 2e-06 M. Also, in data set [4], the dose excreted at 6 h was 15% and the dose excreted at 24 h was 0.6%. Moreover, in data set [5], the inhibition at 200 µM was 80.1 ± 6.7% and the inhibition at 1000 µM was 91.5 ± 5.1%. In [6], the inhibition at 200 µM was 38.8 ± 8% and the inhibition at 1000 µM was 81.4 ± 5.6%. In data set [8] (oral, male SD rats about 230 g), this compound registered an LD50 above 5000 mg/kg.

As to `COc1cccc(C(=O)NCC(=O)NO)c1` [Compound B, 2-(meta-methoxy-benzamide)-acetohydroxamic acid], in [1] (2×10^-4 M), the “pH value, time 0 hour” value came out at 6.45±0.01; the “pH value, time 8 hours” value is 6.84±0.02; the “pH value, time 24 hours” value is 8.71±0.01. In addition, in data set [1] (10^-3 M), the “pH value, time 0 hour” value was found to be 6.47±0.01; the “pH value, time 8 hours” value came to 5.41±0.01; the “pH value, time 24 hours” value came to 6.52±0.003. For the same compound, the IC50 in [2] was 1.2e-06 M. In data set [3], the “Remarks on the dissection, death examples” value is “Erosion was observed” and the “Remarks on the dissection, survivor example” value was “No abnormality”. Besides, in [4], the dose excreted at 6 h is 12.3% and the dose excreted at 24 h is 1.5%. In [5], the inhibition at 200 µM is 87.5 ± 1.6% and the inhibition at 1000 µM is 82 ± 9.2%. In [6], the inhibition at 200 µM is 26.2 ± 5.7% and the inhibition at 1000 µM is 79.1 ± 8.2%. For the same compound, in data set [7], the “Ketone substances in urine, hours 0-6” value was “-”; the “Occult blood in urine, hours 0-6” value is listed as “-”; the “Protein in urine, hours 0-6” value is “+”; the “Glucose in urine, hours 6-24” value is listed as “-”. In addition, in data set [7], the “Ketone substances in urine, hours 6-24” value is on record as “-”; the “Occult blood in urine, hours 6-24” value is “-”; the “Protein in urine, hours 6-24” value is given as “±”; the “Glucose in urine, hours 0-6” value is listed as “-”. Also, in [7], the “Amount and pH value of the urine” value is “there was not found the difference”. The compound also came in with a 50% lethal dose (LD50) in data set [8] (po) above 5000 mg/kg. Moreover, in data set [9], the “Number of death examples, Female” value was 3/7 and the “Number of death examples, Male” value is 2/7. In addition, the Symptom result in [9] (setting [10]) was “Hair raising”. Moreover, the Baited amount result in [9] (setting [11]) is on record as “No change”.

In the case of `O=C(CNC(=O)c1ccco1)NO` [Compound R, 2-(2-furoilamino)-acetohydroxamic acid], in data set [1] (2×10^-4 M), the “pH value, time 0 hour” value is given as 6.44±0.01; the “pH value, time 8 hours” value is 6.65±0.02; the “pH value, time 24 hours” value was determined as 8.52±0.01. Also, in data set [1] (10^-3 M), the “pH value, time 0 hour” value amounted to 6.46±0.00; the “pH value, time 8 hours” value is 5.42±0.01; the “pH value, time 24 hours” value is 6.98±0.02. Also, the IC50 in data set [2] came to 1.3e-06 M. In data set [4], the dose excreted at 6 h was 15.5% and the dose excreted at 24 h was 0.68%. Besides, in data set [5], the inhibition at 200 µM was 85.6 ± 4.7% and the inhibition at 1000 µM is 84.1 ± 5.5%. Also, in data set [6], the inhibition at 200 µM is 28.4 ± 5.1% and the inhibition at 1000 µM is 72.3 ± 8.3%. The 50% lethal dose (LD50) in data set [8] (oral, male SD rats about 230 g) is above 5000 mg/kg.

The values above are taken from patent US4157396A, “Hydroxamic acid derivatives and medicaments for treatment of urolithiasis and pyelonephrosis comprising such derivatives” (Eisai Co., Ltd., priority 1976, dated 1979).
